Data on 4 compounds can be found in article PMC6764124 (Journal of Neuroinflammation, 2019).

Where two headings read alike, the source gives them in different places.

The test system of one series is HIV-infected individuals. Also noted: method as in earlier work. To be noted: cited from earlier work.
A further series relates to HIVE mouse model. Details: method as in PMID 26851503. To be noted: cited from earlier work.
Another series has as its system latent HIV in T cells. Details: method as in PMID 29267399. To be noted: cited from earlier work.
The subject of the next series is HIV-1baL. The experiment in a line: Antiviral activity in primary human macrophages (p24 ELISA). To be noted: for EC90: read-out: EC90 inhibition of HIV replication in macrophages. It counts as cell-based. The source says: Mϕ and monocytes were isolated as previously described. […] Cells were maintained for 6 days before viral quantification (p24-ELISA). For in vitro activation marker studies, CD14^+ monocytes or fully differentiated (CD14^−/CD11b^+) Mϕ were used. Monocytes were used as a model to mimic HIV-induced activation that transpires in the periphery, wherein presence or internalization of HIV-1 in monocytes confers activation (CD14^+/CD16^+) and subsequent trafficking of “Trojan horse” monocytes across and within the BBB [11, 12]. The method used to differentiate Mϕ (CD14^−/CD11b^+) has been validated by our group to ensure that these cells are no longer expressing monocyte marker CD14 and are mature Mϕ (CD11b expression). Mϕ or monocytes were treated with various concentrations of drug prior to infection (HIV-1baL) and maintained for 3 days before quantification of HLA-DR, CD163 (Mϕ), or CD14/CD16 (monocytes; Miltenyi Biotec, San Diego, CA). Mϕ and monocytes were treated with various concentrations of drug for 6 days and stained with Near-IR live/dead dye and quantified by FACS. Antiviral potency was calculated as previously described.
In general terms: An ELISA detects its analyte on a solid surface through an enzyme-linked reagent.

Series [1] has as its system HIV replication in primary PBM cells. Nature of the series: Antiviral activity in activated peripheral blood mononuclear (PBM) cells. It is filed as cell-based, HIV-1. To be noted: for EC90: read-out: EC90 inhibition of HIV replication in PBM cells.
The next series concerns J-lat T cells. The experiment in a line: TNF-α-induced reactivation of latent HIV-1 in J-lat T cells. It is filed as cell-based, human.
In series [2] the test system is latent HIV-1 in primary human Mϕ. The experiment in a line: PMA-induced reactivation of HIV-1 from latent primary human macrophages (p24 ELISA). It is filed as cell-based. The protocol: Primary human Mϕ were prepared as described above and infected with an MOI of 0.5 with HIV-1BaL for 4 h prior to removal of virus and culture in virus-free medium. Supernatants were collected every 5 days, and extracellular p24 production was monitored (p24 ELISA, ABL, Inc.). Fresh culture medium was added to cultures every 5 days as supernatants were collected for p24 analysis. […] After 24 h post-reactivation, cellular supernatants were collected, and extracellular reactivated p24 was quantified (p24 ELISA). Percent inhibition of reactivation was calculated versus no drug controls, and EC50/90 were calculated as previously described.

Series [3] relates to non-dividing p24+ primary CD4+ T cells. The experiment in a line: Frequency of non-dividing p24+ latent primary CD4+ T cells in vitro. It is filed as cell-based, human.
Series [4] deals with HLA-DR and CD163 in primary human Mϕ. Nature of the series: HIV-induced upregulation of activation markers HLA-DR and CD163 in primary human macrophages. It is filed as cell-based. From the text:
Mϕ and monocytes were isolated as previously described. […] Cells were maintained for 6 days before viral quantification (p24-ELISA). For in vitro activation marker studies, CD14^+ monocytes or fully differentiated (CD14^−/CD11b^+) Mϕ were used. […] The method used to differentiate Mϕ (CD14^−/CD11b^+) has been validated by our group to ensure that these cells are no longer expressing monocyte marker CD14 and are mature Mϕ (CD11b expression). […] Miltenyi Biotec, San Diego, CA). Mϕ and monocytes were treated with various concentrations of drug for 6 days and stained with Near-IR live/dead dye and quantified by FACS. Antiviral potency was calculated as previously described. […] Cells were harvested and stained for CD14^+ (FITC)/CD16^+ (APC) to quantify HIV-induced activation or impact of drugs on block of these markers.

Series [5] is described as follows: Pharmacokinetics of baricitinib in mouse plasma and brain after single SC dose (LC-MS/MS). It is filed as in vivo, SCID mice. To be noted: for Cmax: SCID mice. The protocol:
One, 4, 8, and 24 h after drug inoculation, mice were sacrificed and whole blood was collected immediately followed by cardiac perfusion with PBS prior to the extraction of brain tissues. After brain extraction, posterior fossa (the cerebellum and brainstem) was taken, snap frozen, and stored at − 70 °C. Posterior fossa from each mouse was then weighed and homogenized in a mixed water and methanol (2:1) solution. The homogenates were then centrifuged, and the pellet discarded. The supernatant was dried by evaporation using nitrogen gas, resuspended in 1 mL water, and put through Isolute-XL C18 columns (Biotage, Uppsala, Sweden). Drug was then eluted with acetonitrile and subsequently dried. […] Chromatographic separation was performed by Ultimate 3000 LC system (Thermo Scientific, MA, USA), on a Kinetex XB-C18 column (50 × 2.1 mm) with a 2.6-μm particle size (Phenomenex, CA, USA). The mobile phase A consisted of 0.1% formic acid in water, and the mobile phase B consisted of methanol. Isocratic elution was used for the separation with mobile phase A:B at 25:75 (v/v). The column was maintained at ambient temperature. The flow rate was maintained at 250 μL/min, and a 20-μL injection was used. An API5000 triple quadrupole mass spectrometer (ABsciex, MA, USA) was used for detection, with electrospray ionization in positive ion mode. The mass spectrum parameters for the analytes were set as follows: ion spray voltage, 5500 V; curtain gas, 25 psi; ion source gas 1, 40 psi; ion source gas 2, 40 psi; source temperature, 500 °C; and collision gas, 5 psi. […] Analyst software version 1.5.2 was used to operate the mass spectrometer and to perform data analysis. […] The calibration curves had r^2 value greater than 0.99.

The test system of series [6] is HAND mice (IC injection of HIV-infected human MDM). Nature of the series: Brain HAND markers by flow cytometry in SCID mouse HAND model. It counts as in vivo. To be noted: day 14, versus untreated HAND mice. On the procedure:
Four-week-old B6.CB17-Prkdc^scid/SzJ (SCID) male mice were injected IC with 30 μL of HIV-infected MDMs suspended in 0.9% saline, directly into the frontal lobe of the right hemisphere. The injection was done free-handed (without a stereotactic device). The injection is performed with a syringe that allows a very slow rate of infusion. We have verified the injection site with a histological staining in our previously published works, which is in the basal ganglia as described in Koneru et al.. Injections were performed on day 0 (D0). Treatments (baricitinib or saline) were given subcutaneously (SC).
Fourteen days after IC MDM inoculation, mice were sacrificed and brain samples were harvested and placed in a tissue preservative solution (Miltenyi, Bergisch Gladbach, Germany). Samples were then dissociated using a commercial kit and a gentleMacs dissociator (Miltenyi) into single cell suspensions. Cells were then washed in 2% BSA/PBS buffer and incubated with the following: (1) anti-murine CD45-Vioblue (1:10 dilution) and anti-murine MHCII primary antibody (1:500) followed by APC conjugated secondary antibody (1:500 dilution), or isotype-only controls; (2) GFAP-FITC (1:750 dilution 1′ antibody and 1:1000 2′ 488 (FITC) antibody (Abcam, Cambridge, UK); or (3) human (non-murine cross-reactive) CD163-APC (Miltenyi Biotec) for 30 min (Sigma Aldrich, St. Louis, MO). Cells were washed twice in 2% BSA/PBS and fixed with 2% paraformaldehyde for 15 min. Cells were washed twice in 2% BSA/PBS and analyzed for double positive cells by flow cytometry (Macs Quant analyzer and MacsQuantify software, Miltenyi Biotec).
Total events were collected using forward scatter (FSC) and side scatter […] followed by doublet discrimination (FSC-area versus FSC-height) using a MacsQuant flow cytometer (Miltenyi). No primary FSC/SSC gate was established, to allow all events to be collected within the heterogeneous size and granularity of the brain cells. GFAP^+ events were collected with gates and voltages established using 2′ antibody only. GFAP^+ low granularity gate was established with events up to one-log shift from negative population, and GFAP^+ high granularity (activated astrocytes) was established with events greater than two-log shift from negative population. MHCII and CD45 (mouse mononuclear phagocytes) expression were quantified based on quadrant gating for MHCII^+/CD45^−, CD45^+MHCII^−, MHCII^+/CD45^+, or MHCII^−/CD45^−. CD163^+ events (human Mϕ) were collected with gates established from isotype-only controls. Percentages and total events were collected.
A general note: In flow cytometry, cells or beads pass a laser one at a time.

Details of series [7]: method as in Olumiant.com. To be noted: at concentrations more than 2 logs above concentrations in the murine model; ref Olumiant.com; cited from earlier work.

Turning to `N#CC[C@H](C1CCCC1)n1cc(-c2ncnc3[nH]ccc23)cn1` [ruxolitinib], in the series with HIV-infected individuals (HIV-infected, cART-suppressed individuals, versus control cART group), the Safety and tolerability result is “safe and well-tolerated”. Besides, the “sCD14 (clinical marker for monocyte activation)” value with HIV-infected individuals (ruxolitinib arm versus cART group) is “significant reduction”. Further, in the series on HIVE mouse model, the “Effect on HIVE in mouse model” value is “ameliorates HIVE”. The “Reactivation of latent HIV from T cells” value with latent HIV in T cells is on record as “block the reactivation”.

`Nc1ccn([C@@H]2CS[C@H](CO)O2)c(=O)n1` [3TC]: the EC50 (as a rule, the midpoint of the concentration-response curve) in the series with HIV-1baL (primary human Mϕ, read-out: EC50 inhibition of HIV replication in macrophages) came to 100 nM; in series [1] (primary activated PBM cells, read-out: EC50 inhibition of HIV replication in PBM cells), 10 nM. Further, the EC90 (commonly the concentration needed for an effect of 90%) worked out at 1200 nM with HIV-1baL (primary human Mϕ) and 900 nM in series [1] (primary activated PBM cells). For the same compound, the “Effect on TNF-a induced reactivation (dose response, Figure S1 C)” value in the series with J-lat T cells is on record as “did not have any effect”. In [2] (macrophages), the “Effect on PMA induced reactivation (dose response, Figure S1 D)” value was “did not have any effect”. For the same compound, in series [3], the “Effect on frequency of non-dividing latent CD4 T cells (dose response, Figure S1 E)” value is reported as “did not have any effect”. Moreover, the “Effect on HIV-induced activation markers HLA-DR/CD163 double positive macrophages (dose response, Figure S1 F)” value in series [4] is reported as “did not have any effect”.

Turning to `CCS(=O)(=O)N1CC(CC#N)(n2cc(-c3ncnc4[nH]ccc34)cn2)C1` [Baricitinib], in series [5] (1, 4, 8, 24 h after 10 or 50 mg/kg SC, limit of detection 5.5 ng/mL), the “Detection in plasma and brain samples” value is “detected in all plasma and brain samples except for 24 h plasma samples at 10 mg/kg”. Further, in series [5] (10 and 50 mg/kg SC, mouse), the Blood-brain barrier penetration entry is recorded as “can penetrate mouse BBB”. Besides, the Cmax (in general, the peak of the concentration-time curve) in [5] (mouse, brain (posterior fossa: cerebellum and brainstem), 10 mg/kg single SC, read-out: Cmax in the brain) was around 40 ng/g; in [5] (mouse, brain (posterior fossa: cerebellum and brainstem), 50 mg/kg single SC, read-out: Cmax in the brain), around 75 ng/g; in [5] (mouse, plasma, 10 mg/kg single SC, read-out: Cmax in plasma) it was around 200 ng/mL; in [5] (mouse, plasma, 50 mg/kg single SC, read-out: Cmax in plasma), around 1400 ng/mL. The “Activated astrocytes (GFAP+; astrogliosis) in brain” value in [6] (10 mg/kg qd SC) and in series [6] (50 mg/kg qd SC) was “reduced” each time. For the same compound, the “Percentage of activated mouse mononuclear phagocytes (MHCII/CD45 double positive cells) in brain” value in series [6] (10 mg/kg qd SC) and in series [6] (50 mg/kg qd SC) was “significantly reduced” each time. Moreover, the “Activated p24+ human Mϕ in brain” value in series [6] (50 mg/kg qd SC (high dose)) is listed as “significantly reduced”. Besides, the EC90 with HIV-1baL (Human immunodeficiency virus 1, Macrophage) is 2100 ± 300 nM; in series [1] (Human immunodeficiency virus 1, PBMC) it was 400 ± 70 nM; with J-lat T cells (Homo sapiens, T-cell, read-out: EC90 inhibition of TNF-α induced reactivation), 1100 ± 300 nM; in [2] (Macrophage, latent primary human macrophages, 50 ng/mL PMA, 24 h, read-out: EC90 inhibition of PMA induced reactivation), 700 ± 100 nM; in series [3] (Homo sapiens, non-dividing p24+ primary CD4+ T cells, read-out: EC90 reduction of non dividing latent CD4 T cells), 700 ± 80 nM; in [4] (Macrophage, primary human macrophages, read-out: EC90 inhibition of HIV-induced HLA-DR and CD163), 1200 nM. The Toxicity result in series [7] is given as “not toxic”.

Consider `C[C@@H]1CCN(C(=O)CC#N)C[C@@H]1N(C)c1ncnc2[nH]ccc12` [tofacitinib], for which the “Reactivation of latent HIV from T cells” value in the series with latent HIV in T cells is “block the reactivation”.
